Data taken from PMC9785925, “Solubility and Thermal Stability of Thermotoga maritima MreB” (International Journal of Molecular Sciences, 2022).

Legend:
Format in all cases: binding
Tm-MreB [1] = molecular target: T1, Tm-MreB (Thermotoga maritima, UniProt Q9WZ57); assay: competition with TNP-ATP fluorescence, Langmuir single-site fit; conditions: salt-free (4 mM TRIS-HCl, 0.1 mM CaCl2, pH 7.5), 20 µM protein, 1 µM TNP-ATP; competitive; unreliable (text and figure legend disagree)
T1 construct: recombinant in E. coli ArcticExpress (DE3), Ni-NTA purified, His-tag removed with PreScission protease; native purification
T1 sequence (Q9WZ57 1-336): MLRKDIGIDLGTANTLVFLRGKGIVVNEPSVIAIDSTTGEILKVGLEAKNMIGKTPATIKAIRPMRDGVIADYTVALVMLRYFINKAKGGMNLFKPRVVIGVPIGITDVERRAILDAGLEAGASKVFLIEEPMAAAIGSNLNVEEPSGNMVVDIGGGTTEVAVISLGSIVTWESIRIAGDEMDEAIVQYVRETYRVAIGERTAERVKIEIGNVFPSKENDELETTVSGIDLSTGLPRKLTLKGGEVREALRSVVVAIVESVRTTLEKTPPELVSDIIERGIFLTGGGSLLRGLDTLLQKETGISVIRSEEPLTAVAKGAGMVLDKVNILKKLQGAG
Excerpt: competition with TNP-ATP fluorescence, Langmuir single-site fit on Tm-MreB | we were able to determine the affinity of ATP for Tm-MreB

Tm-MreB [2] = molecular target: T1, Tm-MreB; assay: thermal denaturation, tryptophan fluorescence; conditions: 2 mM ATP, salt-free (4 mM TRIS-HCl, 0.1 mM CaCl2, pH 7.5); printed as 90 °C≤
Excerpt: thermal denaturation, tryptophan fluorescence on Tm-MreB

Tm-MreB [3] = molecular target: T1, Tm-MreB; assay: TNP-ATP fluorescence titration, Hill fit

Row | Compound | affinity (Tm-MreB [1]) | This Work (Tryptophan Signal) (Tm-MreB [2]) | Kd (Tm-MreB [3])
1 | Nc1ncnc2c1ncn2[C@@H]1O[C@H](COP(=O)(O)OP(=O)(O)OP(=O)(O)O)[C@@H](O)[C@H]1O [ATP] | ~ 2 µM | > 90 °C | 
2 | Nc1ncnc2c1ncn2[C@@H]1O[C@H](COP(=O)(O)OP(=O)(O)OP(=O)(O)O)[C@H]2OC3(O[C@H]21)C([N+](=O)[O-])=CC(=[N+]([O-])[O-])C=C3[N+](=O)[O-] (stereo partly drawn) [TNP-ATP] |  |  | 3.69 ± 0.04 µM
